According to ChEMBL document CHEMBL5260810, “Inhibition of bromodomain-containing protein 9 for the prevention of epigenetically-defined drug resistance” (Bioorg Med Chem Lett, 2017):

Test system: not listed separately
Test: Cytotoxicity against human Ci-1 cells measured after 8 days
Format: functional, cell-based
Details: Ci-1, 192 h

Row | SMILES | IC50
1 | C/C=C/Cn1cc(-c2ccc(C(=O)N3CCOCC3)cc2)c2cc[nH]c2c1=O | 20 µM

Test system: NCI-H358
Test: Cytotoxicity against human NCI-H358 cells measured after 8 days
Format: functional, cell-based
Details: NCI-H358, 192 h

Row | SMILES | IC50
2 | C/C=C/Cn1cc(-c2ccc(C(=O)N3CCOCC3)cc2)c2cc[nH]c2c1=O | 20 µM

Target: Transcription initiation factor TFIID subunit 1 (Homo sapiens, UniProt P21675)
Test: Binding affinity to human partial length TAF1 bromodomain 2 (D1521 to D1656 residues) expressed in bacterial expression system by BROMOscan assay
Details: not given

Chain of Transcription initiation factor TFIID subunit 1 (P21675 whole entry, the tested form may be a part): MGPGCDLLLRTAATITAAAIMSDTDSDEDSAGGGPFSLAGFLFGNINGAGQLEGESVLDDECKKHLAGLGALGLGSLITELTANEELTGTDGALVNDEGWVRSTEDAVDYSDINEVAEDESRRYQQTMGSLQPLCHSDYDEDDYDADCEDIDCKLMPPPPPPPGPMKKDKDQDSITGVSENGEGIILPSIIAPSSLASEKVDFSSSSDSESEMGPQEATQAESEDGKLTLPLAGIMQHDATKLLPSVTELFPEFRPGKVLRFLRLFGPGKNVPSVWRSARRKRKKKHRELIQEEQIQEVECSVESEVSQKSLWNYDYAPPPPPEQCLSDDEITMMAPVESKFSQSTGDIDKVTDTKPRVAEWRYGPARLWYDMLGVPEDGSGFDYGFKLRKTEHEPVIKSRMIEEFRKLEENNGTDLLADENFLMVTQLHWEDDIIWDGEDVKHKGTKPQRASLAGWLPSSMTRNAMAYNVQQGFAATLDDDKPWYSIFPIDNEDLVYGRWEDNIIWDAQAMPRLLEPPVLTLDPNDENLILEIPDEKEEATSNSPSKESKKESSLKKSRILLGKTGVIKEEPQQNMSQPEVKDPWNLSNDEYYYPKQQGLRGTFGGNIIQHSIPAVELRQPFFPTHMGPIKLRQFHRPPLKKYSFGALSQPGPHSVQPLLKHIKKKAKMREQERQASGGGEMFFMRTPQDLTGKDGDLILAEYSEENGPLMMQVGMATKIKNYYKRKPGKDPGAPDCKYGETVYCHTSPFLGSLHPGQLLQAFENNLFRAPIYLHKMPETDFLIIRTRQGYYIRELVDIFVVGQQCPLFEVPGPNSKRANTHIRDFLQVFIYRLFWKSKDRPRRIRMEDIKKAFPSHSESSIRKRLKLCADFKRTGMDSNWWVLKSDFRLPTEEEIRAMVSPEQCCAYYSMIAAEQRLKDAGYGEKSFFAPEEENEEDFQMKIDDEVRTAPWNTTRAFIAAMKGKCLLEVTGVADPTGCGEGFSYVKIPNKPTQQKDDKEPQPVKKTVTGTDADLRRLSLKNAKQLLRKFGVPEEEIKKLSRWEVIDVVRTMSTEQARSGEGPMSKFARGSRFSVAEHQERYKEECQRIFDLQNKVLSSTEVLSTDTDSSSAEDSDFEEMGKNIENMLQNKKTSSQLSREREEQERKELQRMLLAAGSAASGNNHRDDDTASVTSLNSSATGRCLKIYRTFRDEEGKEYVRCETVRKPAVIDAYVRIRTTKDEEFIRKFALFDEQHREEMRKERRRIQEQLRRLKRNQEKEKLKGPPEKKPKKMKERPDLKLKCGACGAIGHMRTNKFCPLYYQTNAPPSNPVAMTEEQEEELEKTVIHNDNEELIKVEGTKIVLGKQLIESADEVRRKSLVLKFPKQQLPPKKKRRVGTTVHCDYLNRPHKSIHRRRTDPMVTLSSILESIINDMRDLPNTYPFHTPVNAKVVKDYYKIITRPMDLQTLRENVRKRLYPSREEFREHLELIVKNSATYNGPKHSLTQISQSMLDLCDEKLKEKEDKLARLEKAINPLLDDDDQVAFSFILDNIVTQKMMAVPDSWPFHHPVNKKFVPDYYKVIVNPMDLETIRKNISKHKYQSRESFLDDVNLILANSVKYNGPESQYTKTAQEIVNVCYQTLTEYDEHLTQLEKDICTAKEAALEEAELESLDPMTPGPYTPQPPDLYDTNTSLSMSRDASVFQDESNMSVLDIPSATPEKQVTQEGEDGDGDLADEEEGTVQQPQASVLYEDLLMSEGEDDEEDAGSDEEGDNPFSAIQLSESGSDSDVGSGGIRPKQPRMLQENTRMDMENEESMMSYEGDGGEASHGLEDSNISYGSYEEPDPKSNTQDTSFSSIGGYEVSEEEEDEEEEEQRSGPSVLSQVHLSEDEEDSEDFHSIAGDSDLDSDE

Row | SMILES | Kd
3 | C/C=C/Cn1cc(-c2cc(OC)c(C(C)(C)O)cc2OC)c2cc(C)[nH]c2c1=O | > 10000 nM
4 | C/C=C/Cn1cc(-c2ccc(C(=O)N3CCOCC3)cc2)c2cc[nH]c2c1=O | 310 nM

Test system: SU-DHL-16
Test: Cytotoxicity against human SU-DHL-16 cells measured after 8 days
Format: functional, cell-based
Details: SU-DHL-16, 192 h

Row | SMILES | IC50
5 | C/C=C/Cn1cc(-c2ccc(C(=O)N3CCOCC3)cc2)c2cc[nH]c2c1=O | 10.3 µM

Test system: HT-29
Test: Cytotoxicity against human HT-29 cells measured after 8 days
Format: functional, cell-based
Details: HT-29, 192 h

Row | SMILES | IC50
6 | C/C=C/Cn1cc(-c2ccc(C(=O)N3CCOCC3)cc2)c2cc[nH]c2c1=O | 20 µM

Test system: not listed separately
Test: Cytotoxicity against human KPL-4 cells measured after 8 days
Format: functional, cell-based
Details: KPL4, 192 h

Row | SMILES | IC50
7 | C/C=C/Cn1cc(-c2ccc(C(=O)N3CCOCC3)cc2)c2cc[nH]c2c1=O | 20 µM

Test system: LCLC-103H cell line
Test: Cytotoxicity against human LCLC-103H cell line measured after 8 days
Format: functional, cell-based
Details: 192 h

Row | SMILES | IC50
8 | C/C=C/Cn1cc(-c2ccc(C(=O)N3CCOCC3)cc2)c2cc[nH]c2c1=O | 20 µM

Test system: HCC1143
Test: Cytotoxicity against human HCC1143 cells measured after 8 days
Format: functional, cell-based
Details: HCC1143, 192 h

Row | SMILES | IC50
9 | C/C=C/Cn1cc(-c2ccc(C(=O)N3CCOCC3)cc2)c2cc[nH]c2c1=O | 20 µM

Test system: EOL1
Test: Cytotoxicity against human EOL1 cells measured after 8 days
Format: functional, cell-based
Details: EOL1, 192 h

Row | SMILES | IC50
10 | C/C=C/Cn1cc(-c2ccc(C(=O)N3CCOCC3)cc2)c2cc[nH]c2c1=O | 950 nM

Test system: NCI-H2452
Test: Cytotoxicity against human NCI-H2452 cells measured after 8 days
Format: functional, cell-based
Details: NCI-H2452, 192 h

Row | SMILES | IC50
11 | C/C=C/Cn1cc(-c2ccc(C(=O)N3CCOCC3)cc2)c2cc[nH]c2c1=O | 20 µM

Target: T1, Bromodomain-containing protein 4 (Homo sapiens, UniProt O60885)
Test: Binding affinity to BRD4 bromodomain 1/2 long isoform (unknown origin) by BROMOscan assay
Details: not given

Row | SMILES | Kd
12 | C/C=C/Cn1cc(-c2cc(OC)c(C(C)(C)O)cc2OC)c2cc(C)[nH]c2c1=O | > 10 µM
13 | C/C=C/Cn1cc(-c2ccc(C(=O)N3CCOCC3)cc2)c2cc[nH]c2c1=O | 8.8 µM

Test system: K562
Test: Cytotoxicity against human K562 cells measured after 8 days
Format: functional, cell-based
Details: K562, 192 h

Row | SMILES | IC50
14 | C/C=C/Cn1cc(-c2ccc(C(=O)N3CCOCC3)cc2)c2cc[nH]c2c1=O | 20 µM

Test system: SW1573
Test: Cytotoxicity against human SW1573 cells measured after 8 days
Format: functional, cell-based
Details: SW1573, 192 h

Row | SMILES | IC50
15 | C/C=C/Cn1cc(-c2ccc(C(=O)N3CCOCC3)cc2)c2cc[nH]c2c1=O | 20 µM

Test system: not listed separately
Test: Cytotoxicity against human KMM-1 cells measured after 8 days
Format: functional, cell-based
Details: KMM-1, 192 h

Row | SMILES | IC50
16 | C/C=C/Cn1cc(-c2ccc(C(=O)N3CCOCC3)cc2)c2cc[nH]c2c1=O | 20 µM

Test system: SW48
Test: Cytotoxicity against human SW48 cells measured after 8 days
Format: functional, cell-based
Details: SW48, 192 h

Row | SMILES | IC50
17 | C/C=C/Cn1cc(-c2ccc(C(=O)N3CCOCC3)cc2)c2cc[nH]c2c1=O | 20 µM

Test system: WiDr
Test: Cytotoxicity against human WiDr cells measured after 8 days
Format: functional, cell-based
Details: 192 h

Row | SMILES | IC50
18 | C/C=C/Cn1cc(-c2ccc(C(=O)N3CCOCC3)cc2)c2cc[nH]c2c1=O | 20 µM

Target: Adrenergic receptor alpha-2 (Rattus norvegicus) (UniProt P22086+P19328+P22909)
Test: Displacement of [3H]-RX 821002 from rat alpha2 adrenoceptor at 10 uM after 60 mins by scintillation counting analysis relative to control
Format: protein assay
Details: not given

Row | SMILES | Activity
19 | C/C=C/Cn1cc(-c2ccc(C(=O)N3CCOCC3)cc2)c2cc[nH]c2c1=O | -7%

Target: High affinity nerve growth factor receptor (Homo sapiens) (UniProt P04629)
Test: Inhibition of TrkA (unknown origin) at 1 uM relative to control
Details: not given

Row | SMILES | inhibition
20 | C/C=C/Cn1cc(-c2ccc(C(=O)N3CCOCC3)cc2)c2cc[nH]c2c1=O | 21.4%

Test system: CAL-120
Test: Cytotoxicity against human CAL-120 cells measured after 8 days
Format: functional, cell-based
Details: CAL-120, 192 h

Row | SMILES | IC50
21 | C/C=C/Cn1cc(-c2ccc(C(=O)N3CCOCC3)cc2)c2cc[nH]c2c1=O | 20 µM

Target: SWI/SNF-related matrix-associated actin-dependent regulator of chromatin subfamily A member 2 (Homo sapiens, UniProt P51531)
Test: Binding affinity to human partial length SMARCA2 (S1377 to Q1486 residues) expressed in bacterial expression system by BROMOscan assay
Details: not given

Row | SMILES | Kd
22 | C/C=C/Cn1cc(-c2cc(OC)c(C(C)(C)O)cc2OC)c2cc(C)[nH]c2c1=O | > 10 µM
23 | C/C=C/Cn1cc(-c2ccc(C(=O)N3CCOCC3)cc2)c2cc[nH]c2c1=O | > 10 µM

Target: Bromodomain-containing protein 2 (Homo sapiens, UniProt P25440)
Test: Binding affinity to human partial length BRD2 bromodomain 1/2 isoform 1 (K71 to D455 residues) by BROMOscan assay
Details: not given

Chain of Bromodomain-containing protein 2 (P25440 whole entry, the tested form may be a part, canonical isoform): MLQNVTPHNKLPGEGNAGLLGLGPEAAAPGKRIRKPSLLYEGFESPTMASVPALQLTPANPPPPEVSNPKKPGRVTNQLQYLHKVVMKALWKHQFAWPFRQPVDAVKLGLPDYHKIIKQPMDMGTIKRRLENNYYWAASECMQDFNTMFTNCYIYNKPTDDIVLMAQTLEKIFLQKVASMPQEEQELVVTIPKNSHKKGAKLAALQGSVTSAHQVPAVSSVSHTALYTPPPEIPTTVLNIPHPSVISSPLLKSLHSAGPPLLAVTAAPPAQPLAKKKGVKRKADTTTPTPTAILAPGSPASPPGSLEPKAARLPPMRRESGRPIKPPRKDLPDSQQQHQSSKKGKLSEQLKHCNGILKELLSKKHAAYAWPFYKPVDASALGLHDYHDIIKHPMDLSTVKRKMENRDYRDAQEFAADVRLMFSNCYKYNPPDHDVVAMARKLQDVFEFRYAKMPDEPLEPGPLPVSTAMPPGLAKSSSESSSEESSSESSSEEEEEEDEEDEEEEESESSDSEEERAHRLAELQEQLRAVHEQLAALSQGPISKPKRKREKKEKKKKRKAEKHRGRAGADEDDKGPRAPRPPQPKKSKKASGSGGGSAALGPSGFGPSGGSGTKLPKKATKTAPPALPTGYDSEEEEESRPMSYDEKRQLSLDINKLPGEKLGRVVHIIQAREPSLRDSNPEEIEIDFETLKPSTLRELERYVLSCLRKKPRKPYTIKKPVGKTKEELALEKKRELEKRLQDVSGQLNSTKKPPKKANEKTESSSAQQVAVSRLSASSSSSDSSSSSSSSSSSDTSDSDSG

Row | SMILES | Kd
24 | C/C=C/Cn1cc(-c2cc(OC)c(C(C)(C)O)cc2OC)c2cc(C)[nH]c2c1=O | 1700 nM
25 | C/C=C/Cn1cc(-c2ccc(C(=O)N3CCOCC3)cc2)c2cc[nH]c2c1=O | 2300 nM

Test system: not listed separately
Test: Cytotoxicity against human KPL-1 cells measured after 8 days
Format: functional, cell-based
Details: KPL-1, 192 h

Row | SMILES | IC50
26 | C/C=C/Cn1cc(-c2ccc(C(=O)N3CCOCC3)cc2)c2cc[nH]c2c1=O | 20 µM

Test system: AU565
Test: Cytotoxicity against human AU565 cells measured after 8 days
Format: functional, cell-based
Details: AU565, 192 h

Row | SMILES | IC50
27 | C/C=C/Cn1cc(-c2ccc(C(=O)N3CCOCC3)cc2)c2cc[nH]c2c1=O | 20 µM

Target: Sodium-dependent noradrenaline transporter (Homo sapiens) (UniProt P23975)
Test: Displacement of [3H]nisoxetine from recombinant human norepinephrine transporter at 10 uM after 120 mins by scintillation counting analysis relative to control
Details: not given

Row | SMILES | Activity
28 | C/C=C/Cn1cc(-c2ccc(C(=O)N3CCOCC3)cc2)c2cc[nH]c2c1=O | -3%

Test system: not listed separately
Test: Cytotoxicity against human NCI-H2731 cells measured after 8 days
Format: functional, cell-based
Details: NCI-H2731, 192 h

Row | SMILES | IC50
29 | C/C=C/Cn1cc(-c2ccc(C(=O)N3CCOCC3)cc2)c2cc[nH]c2c1=O | 20 µM

Test system: SUD4
Test: Cytotoxicity against human SU-DHL-4 cells measured after 8 days
Format: functional, cell-based
Details: SU-DHL-4, 192 h

Row | SMILES | IC50
30 | C/C=C/Cn1cc(-c2ccc(C(=O)N3CCOCC3)cc2)c2cc[nH]c2c1=O | 20 µM

Organism: Homo sapiens
Test: Binding affinity to GABA-gated chloride channel (unknown origin) at 10 uM by antagonist radioligand-based assay relative to control
Set-up: scale not given: the % may be the effect or the level left
Details: time 60.0 min

Row | SMILES | Activity
31 | C/C=C/Cn1cc(-c2ccc(C(=O)N3CCOCC3)cc2)c2cc[nH]c2c1=O | 4%

Test system: not listed separately
Test: Cytotoxicity against human MOR cells measured after 8 days
Format: functional, cell-based
Details: 192 h

Row | SMILES | IC50
32 | C/C=C/Cn1cc(-c2ccc(C(=O)N3CCOCC3)cc2)c2cc[nH]c2c1=O | 20 µM

Test system: not listed separately
Test: Cytotoxicity against human LS174T-HM7 cells measured after 8 days
Format: functional, cell-based
Details: LS174T-HM7, 192 h

Row | SMILES | IC50
33 | C/C=C/Cn1cc(-c2ccc(C(=O)N3CCOCC3)cc2)c2cc[nH]c2c1=O | 20 µM

Test system: COLO 205
Test: Cytotoxicity against human COLO 205 cells measured after 8 days
Format: functional, cell-based
Details: COLO 205, 192 h

Row | SMILES | IC50
34 | C/C=C/Cn1cc(-c2ccc(C(=O)N3CCOCC3)cc2)c2cc[nH]c2c1=O | 20 µM

Target: T1, Bromodomain-containing protein 4
Test: Displacement of biotinylated small-molecule ligand from recombinant His-tagged BRD4 bromodomain 2 (unknown origin) measured after 10 mins by TR-FRET assay
Details: not given

Row | SMILES | IC50
35 | C/C=C/Cn1cc(-c2cc(OC)c(C(C)(C)O)cc2OC)c2cc(C)[nH]c2c1=O | > 20 µM
36 | C/C=C/Cn1cc(-c2ccc(C(=O)N3CCOCC3)cc2)c2cc[nH]c2c1=O | 8.3 µM

Target: Bromodomain adjacent to zinc finger domain protein 2A (Homo sapiens, UniProt Q9UIF9)
Test: Binding affinity to human partial length BAZ2A (M1792 to L1905 residues) expressed in bacterial expression system by BROMOscan assay
Details: not given

Chain of Bromodomain adjacent to zinc finger domain protein 2A (Q9UIF9 whole entry, the tested form may be a part): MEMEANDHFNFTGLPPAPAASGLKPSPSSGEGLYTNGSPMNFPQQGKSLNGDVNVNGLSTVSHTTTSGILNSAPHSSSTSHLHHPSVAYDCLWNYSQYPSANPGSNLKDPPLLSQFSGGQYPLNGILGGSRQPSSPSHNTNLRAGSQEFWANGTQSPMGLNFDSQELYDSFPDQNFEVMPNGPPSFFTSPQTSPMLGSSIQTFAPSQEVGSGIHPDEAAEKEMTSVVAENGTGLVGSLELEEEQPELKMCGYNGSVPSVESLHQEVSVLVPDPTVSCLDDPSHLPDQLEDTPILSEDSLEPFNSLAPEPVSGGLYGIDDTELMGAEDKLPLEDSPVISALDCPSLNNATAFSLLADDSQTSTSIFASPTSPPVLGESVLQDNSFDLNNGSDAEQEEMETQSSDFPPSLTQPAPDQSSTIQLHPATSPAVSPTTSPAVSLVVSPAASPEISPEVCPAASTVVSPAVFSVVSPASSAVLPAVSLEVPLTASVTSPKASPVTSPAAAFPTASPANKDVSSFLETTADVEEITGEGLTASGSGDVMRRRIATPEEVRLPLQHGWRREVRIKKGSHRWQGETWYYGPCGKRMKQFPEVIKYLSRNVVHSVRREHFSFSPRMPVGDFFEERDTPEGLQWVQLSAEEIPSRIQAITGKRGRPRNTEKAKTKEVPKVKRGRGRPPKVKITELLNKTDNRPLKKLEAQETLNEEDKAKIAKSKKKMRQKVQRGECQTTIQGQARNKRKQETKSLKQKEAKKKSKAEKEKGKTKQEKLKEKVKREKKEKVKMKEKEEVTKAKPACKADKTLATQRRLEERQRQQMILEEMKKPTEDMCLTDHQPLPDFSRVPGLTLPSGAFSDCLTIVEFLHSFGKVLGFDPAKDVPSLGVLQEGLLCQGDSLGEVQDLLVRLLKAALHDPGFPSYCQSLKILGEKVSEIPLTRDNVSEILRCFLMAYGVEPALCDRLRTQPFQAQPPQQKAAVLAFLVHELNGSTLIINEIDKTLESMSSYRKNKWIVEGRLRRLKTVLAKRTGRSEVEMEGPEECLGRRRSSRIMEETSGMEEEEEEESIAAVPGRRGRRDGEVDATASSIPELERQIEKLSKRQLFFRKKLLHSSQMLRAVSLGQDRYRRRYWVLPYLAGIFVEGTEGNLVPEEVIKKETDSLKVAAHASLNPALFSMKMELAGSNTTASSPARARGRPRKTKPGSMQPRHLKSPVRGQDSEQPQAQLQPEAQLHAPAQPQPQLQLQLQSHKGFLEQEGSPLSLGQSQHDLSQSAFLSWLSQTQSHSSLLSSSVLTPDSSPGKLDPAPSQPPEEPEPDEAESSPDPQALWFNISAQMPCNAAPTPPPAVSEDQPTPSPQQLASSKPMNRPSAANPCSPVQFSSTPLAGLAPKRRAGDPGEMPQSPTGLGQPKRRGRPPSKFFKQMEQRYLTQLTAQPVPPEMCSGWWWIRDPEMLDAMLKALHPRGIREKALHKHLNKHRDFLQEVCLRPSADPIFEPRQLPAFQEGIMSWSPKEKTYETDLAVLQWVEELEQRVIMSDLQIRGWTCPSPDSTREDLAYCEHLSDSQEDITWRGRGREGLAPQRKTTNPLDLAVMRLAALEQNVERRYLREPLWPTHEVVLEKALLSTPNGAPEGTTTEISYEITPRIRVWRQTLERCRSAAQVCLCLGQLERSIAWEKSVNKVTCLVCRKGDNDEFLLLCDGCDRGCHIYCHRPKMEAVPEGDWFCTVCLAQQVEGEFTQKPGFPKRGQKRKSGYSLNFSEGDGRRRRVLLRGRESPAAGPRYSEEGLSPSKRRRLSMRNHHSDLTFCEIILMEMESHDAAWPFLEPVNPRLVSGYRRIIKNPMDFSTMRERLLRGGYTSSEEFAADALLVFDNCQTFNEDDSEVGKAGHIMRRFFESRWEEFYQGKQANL

Row | SMILES | Kd
37 | C/C=C/Cn1cc(-c2cc(OC)c(C(C)(C)O)cc2OC)c2cc(C)[nH]c2c1=O | > 10 µM
38 | C/C=C/Cn1cc(-c2ccc(C(=O)N3CCOCC3)cc2)c2cc[nH]c2c1=O | > 10 µM

Test system: not listed separately
Test: Cytotoxicity against human KMS-28PE cells measured after 8 days
Format: functional, cell-based
Details: 192 h

Row | SMILES | IC50
39 | C/C=C/Cn1cc(-c2ccc(C(=O)N3CCOCC3)cc2)c2cc[nH]c2c1=O | 20 µM

Test system: NAMALVA
Test: Cytotoxicity against human NAMALVA cells measured after 8 days
Format: functional, cell-based
Details: 192 h

Row | SMILES | IC50
40 | C/C=C/Cn1cc(-c2ccc(C(=O)N3CCOCC3)cc2)c2cc[nH]c2c1=O | 20 µM

Test system: U-698-M
Test: Cytotoxicity against human U-698-M cells measured after 8 days
Format: functional, cell-based
Details: 192 h

Row | SMILES | IC50
41 | C/C=C/Cn1cc(-c2ccc(C(=O)N3CCOCC3)cc2)c2cc[nH]c2c1=O | 20 µM

Test system: NCI-H28
Test: Cytotoxicity against human NCI-H28 cells measured after 8 days
Format: functional, cell-based
Details: NCI-H28, 192 h

Row | SMILES | IC50
42 | C/C=C/Cn1cc(-c2ccc(C(=O)N3CCOCC3)cc2)c2cc[nH]c2c1=O | 20 µM

Target: T2, Muscarinic acetylcholine receptor M2 (Homo sapiens) (UniProt P08172)
T2 sequence (whole entry): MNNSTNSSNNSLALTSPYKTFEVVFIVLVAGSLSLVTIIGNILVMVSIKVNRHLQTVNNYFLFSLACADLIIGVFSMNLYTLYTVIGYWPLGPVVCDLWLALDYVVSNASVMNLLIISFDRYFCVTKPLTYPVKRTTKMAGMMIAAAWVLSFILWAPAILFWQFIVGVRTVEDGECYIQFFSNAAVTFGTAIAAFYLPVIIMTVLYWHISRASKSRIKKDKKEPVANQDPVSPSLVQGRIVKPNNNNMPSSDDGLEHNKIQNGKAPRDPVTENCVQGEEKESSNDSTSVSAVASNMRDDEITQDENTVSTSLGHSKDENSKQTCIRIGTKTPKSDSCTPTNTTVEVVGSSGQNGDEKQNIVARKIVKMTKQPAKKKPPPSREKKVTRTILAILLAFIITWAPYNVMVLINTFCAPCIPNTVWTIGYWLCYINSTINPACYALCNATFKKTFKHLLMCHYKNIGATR
Test: Displacement of [3H]AF-DX 384 from human recombinant M2 receptor at 10 uM after 60 mins by scintillation counting analysis relative to control
Details: not given

Row | SMILES | Activity
43 | C/C=C/Cn1cc(-c2ccc(C(=O)N3CCOCC3)cc2)c2cc[nH]c2c1=O | -7%

Test system: GA-10
Test: Cytotoxicity against human GA-10 cells measured after 8 days
Format: functional, cell-based
Details: GA-10, 192 h

Row | SMILES | IC50
44 | C/C=C/Cn1cc(-c2ccc(C(=O)N3CCOCC3)cc2)c2cc[nH]c2c1=O | 10.8 µM

Test system: NCI-H1703
Test: Cytotoxicity against human NCI-H1703 cells measured after 8 days
Format: functional, cell-based
Details: NCI-H1703, 192 h

Row | SMILES | IC50
45 | C/C=C/Cn1cc(-c2ccc(C(=O)N3CCOCC3)cc2)c2cc[nH]c2c1=O | 20 µM
